Experimental data from US5037852A, “Cinnamoylamide derivatives” (Ono Pharmaceutical Co., Ltd., priority 1987, dated 1991).

Target: 5α-reductase
Test: Inhibitory activity on 5α-reductase in vitro (rat prostate enzyme, [4-C14]-testosterone conversion to dihydrotestosterone)
Format: biochemical
Settings: male rat prostate enzyme; [4-C14]-testosterone 1.5 n mol, NADPH; 60 mins at 37° C.; pH 7.4 buffer
Protocol: The test was carried out with reference to the method of J. Shimazaki et al [See Endocrinol, Japon., 18, 179 (1971).]
Male rat's prostate (4 g) was homogenized with its triple volume of 0.1M HEPES buffer (PH 7.4) including 0.25M cane sugar and was centrifuged at 3000 r.p.m. for 10 mins.
The precipitate was suspended into the buffer solution described above (10 ml), and the suspension was centrifuged at 3000 r.p.m for 5 mins. The resulting precipitated was suspended in the buffer solution (3 ml) described above and was used as a sauce of enzyme.
A reaction mixture (total volume 0.1 ml) of [4-C^14 ]-testosterone (1.5n mol, 1.5×10^5 cpm), NADPH (0.5 μmol), enzyme solution (0.03 ml) described above and several kinds of concentration of the compounds in the present invention was incubated for 60 mins at 37° C. Enzyme reaction was quenched by addition of a mixture (0.4 ml) of chloroform and methanol (1:2), and the mixture was centrifuged at 2000 r.p.m for 3 mins. The supernatant (50 μl) was spotted on silica gel thin layer plate. The spot on the plate was developed with a mixture of chloroform, methanol and acetic acid (99.2:0.6:0.2). Radioactivity of dihydrotestosteron generated on plate was measured by TLC scanner of radio-autography and inhibitory ratio was calculated.

Row | SMILES | IC50 [nM]
1 | CCCCCc1cccc(/C=C(\C)C(=O)Nc2ccccc2OCCCC(=O)O)c1 [1 (k), 4-[2-(3-pentyl-α-methylcinnamoylamino)phenoxy]butanoic acid] | 240
2 | C/C(=C\C(=O)Nc1ccccc1OCCCC(=O)O)c1ccc(CC2CCCCC2)cc1 [1 (h), 4-[2-(4-cyclohexylmethyl-β-methylcinnamoylamino)phenoxy] butanoic acid] | 280
3 | C/C(=C\c1ccc(CCc2ccccc2)cc1)C(=O)Nc1ccccc1OCCCC(=O)O [1 (l), 4-[2-(4-phenethyl-α-methylcinnamoylamino)phenoxy]butanoic acid] | 230
4 | C/C(=C\C(=O)Nc1ccccc1OCCCC(=O)O)c1ccc(Oc2ccccc2)cc1 [1 (j), 4-[2-(4-phenoxy-β-methylcinnamoylamino)phenoxy]butanoic acid] | 250
5 | C/C(=C\C(=O)Nc1ccccc1OCCCC(=O)O)c1ccc(CCCCc2ccccc2)cc1 [1 (i), 4-[2-{4-(4-phenylbutyl)-β-methylcinnamoylamino)phenoxy] butanoic acid] | 320
6 | CCCCCOc1ccc(/C(C)=C/C(=O)Nc2ccccc2OCCCC(=O)O)c(F)c1 [1 (e), 4-[2-(2-fluoro-4-pentyloxy-β-methylcinnamoylamino)phenoxy]butanoic acid] | 280

Continued, values first:

Row | IC50 [nM] | SMILES
7 | 300 | CCC(CC)Cc1ccc(/C(C)=C/C(=O)Nc2ccccc2OCCCC(=O)O)cc1 [1 (c), 4-[2-{4-(2-ethylbutyl)-β-methylcinnamoylamino}phenoxy]butanoic acid]
8 | 110 | C/C(=C\C(=O)Nc1ccccc1OCCCC(=O)O)c1ccc(CC2CCC2)cc1 [1 (g), 4-[2-(4-cyclobutylmethyl-β-methylcinnamoylamino)phenoxy] butanoic acid]
9 | 160 | CCCCCc1cccc(/C(C)=C/C(=O)Nc2ccccc2OCCCC(=O)O)c1 [1 (a), 4-[2-(3-pentyl-β-methylcinnamoylamino)phenoxy]butanoic acid]
10 | 340 | CCCC(C)Cc1ccc(/C(C)=C/C(=O)Nc2ccccc2OCCCC(=O)O)cc1 (stereo not drawn) [1 (d), 4-[2-{4-(2-methylpentyl)-β-methylcinnamoylamino}phenoxy] butanoic acid]
11 | 370 | C/C(=C\C(=O)Nc1ccccc1OCCCC(=O)O)c1ccc(CC(C)(C)C)cc1 [1 (b)]
12 | 200 | CCCCCc1ccc(/C(C)=C/C(=O)Nc2ccccc2OCCCC(=O)O)cc1 [Example 1, 4-[2-(4-pentyl-β-methylcinnamoylamino)phenoxy]butanoic acid]
13 | 430 | CCCCSc1ccc(/C(C)=C/C(=O)Nc2ccccc2OCCCC(=O)O)cc1 [1 (f), 4-[2-(4-butylthio-β-methylcinnamoylamino)phenoxy]butanoic acid]
